Data on eleven compounds can be found in patent US20240158446A1, “CYCLIC COMPOUND HAVING SELECTIVE INHIBITORY ACTION ON KRAS OVER HRAS AND NRAS” (CHUGAI SEIYAKU KABUSHIKI KAISHA, priority 2021, published 2024).

Test [1] addresses GDP-bound NRAS wild-type protein (Homo sapiens, UniProt P01111). Put plainly: Binding to NRAS by surface plasmon resonance (SPR), Single Cycle Kinetics. The note with it: for NRAS/KRAS (ratio of KD value with respect to GDP-bound NRAS wild-type protein to KD value with respect to KRAS): SPR KD ratio NRAS/KRAS, class symbols. Background: Surface plasmon resonance follows binding to a sensor surface in real time, without labels.

Test [2] deals with GDP-bound HRAS wild-type protein (Homo sapiens, UniProt P01112). Put plainly: Binding to HRAS by surface plasmon resonance (SPR), Single Cycle Kinetics. Conditions: for HRAS/KRAS (ratio of KD value with respect to GDP-bound HRAS wild-type protein to KD value with respect to KRAS): SPR KD ratio HRAS/KRAS, class symbols.
GDP-bound HRAS wild-type protein, sequence (P01112 whole entry): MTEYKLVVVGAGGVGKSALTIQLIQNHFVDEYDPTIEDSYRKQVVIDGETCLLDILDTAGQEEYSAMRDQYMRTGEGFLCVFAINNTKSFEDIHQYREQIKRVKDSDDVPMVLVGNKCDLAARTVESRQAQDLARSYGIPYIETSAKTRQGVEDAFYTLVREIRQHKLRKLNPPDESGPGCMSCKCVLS
Where [3] appears, read: SPR, GDP-bound NRAS wild-type protein vs GDP-bound KRAS wild-type protein.
Setting [4] is: SPR, GDP-bound HRAS wild-type protein vs GDP-bound KRAS wild-type protein.

GDP-bound NRAS wild-type protein, sequence (P01111 whole entry): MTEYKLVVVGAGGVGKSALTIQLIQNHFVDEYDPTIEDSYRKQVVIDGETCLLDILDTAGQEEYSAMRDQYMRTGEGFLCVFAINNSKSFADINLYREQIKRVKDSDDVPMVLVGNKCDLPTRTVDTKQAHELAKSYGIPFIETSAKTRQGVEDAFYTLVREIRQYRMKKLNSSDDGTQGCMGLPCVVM

Turning to `CCO[C@@H]1C[C@H]2C(=O)NC3(CCC3)C(=O)N(C)[C@@H](C3CCCC3)C(=O)N(C)[C@H](C(=O)N3CCOCC3)CC(=O)N(CC)[C@@H](CC(C)C)C(=O)N[C@@H]([C@@H](C)CC)C(=O)N(C)CC(=O)N(C)[C@H]3C[C@@H](C)CCN(C3=O)[C@@H](Cc3ccc(C(F)(F)F)cc3)C(=O)N(C)CC(=O)N[C@@H](CCc3cc(F)c(C(F)(F)F)c(F)c3)C(=O)N2C1` [PP1030], in test [1] (setting [3]), the “NRAS/KRAS (ratio of KD value for NRAS to KD value for KRAS)” value was “B (a compound having 3 or more and less than 10 is denoted as B)”. In addition, the “HRAS/KRAS (ratio of KD value for HRAS to KD value for KRAS)” value in test [2] (setting [4]) is “B (a compound having 3 or more and less than 10 is denoted as B)”.
Regarding `CCC[C@H]1C(=O)N[C@@H]([C@@H](C)CC)C(=O)N(C)CC(=O)N(C)[C@H]2C/C=C\CCN(C2=O)[C@@H](Cc2ccc(C)cc2)C(=O)N(C)CC(=O)N[C@@H](CCc2ccc3c(C)cn(C)c3c2)C(=O)N2C[C@H](OCC)C[C@H]2C(=O)NC2(CC(C)(C)C2)C(=O)N(C)[C@@H](C(CC)CC)C(=O)N(C)[C@H](C(=O)N(C)C)CC(=O)N1C` [PP2910], in test [1], the “NRAS/KRAS (ratio of KD value with respect to GDP-bound NRAS wild-type protein to KD value with respect to KRAS)” value was “AA (a compound having 20 or more is denoted as AA)”. In addition, in test [2], the “HRAS/KRAS (ratio of KD value with respect to GDP-bound HRAS wild-type protein to KD value with respect to KRAS)” value was “A (a compound having 10 or more and less than 20 is denoted as A)”.
With `CCC[C@H]1C(=O)N[C@@H](C2CCCC2)C(=O)N(C)CC(=O)N(C)[C@H]2C/C=C\CCN(C2=O)[C@@H](Cc2ccc(C)cc2)C(=O)N(C)CC(=O)N[C@@H](CCc2ccc(C(F)(F)F)c(OC)c2)C(=O)N2CC3(CC3)C[C@H]2C(=O)NC2(CC(C)(C)C2)C(=O)N(C)[C@@H](CC(C)(C)C)C(=O)N(C)[C@H](C(=O)N(C)C)CC(=O)N1C` [PP3010], the “NRAS/KRAS (ratio of KD value for NRAS to KD value for KRAS)” value in test [1] (setting [3]) was “B (a compound having 3 or more and less than 10 is denoted as B)”. Also, the “HRAS/KRAS (ratio of KD value for HRAS to KD value for KRAS)” value in test [2] (setting [4]) is “B (a compound having 3 or more and less than 10 is denoted as B)”.
For the compound `CCO[C@@H]1C[C@H]2C(=O)NC3(CCC3)C(=O)N(C)[C@@H](C3CCCC3)C(=O)N(C)[C@H](C(=O)N3CCOCC3)CC(=O)N(C)[C@@H](CC(C)C)C(=O)N[C@@H]([C@H](C)CC)C(=O)N(C)CC(=O)N(C)[C@H]3CCCCCN(C3=O)[C@@H](Cc3ccc(C(F)(F)F)cc3)C(=O)N(C)CC(=O)N[C@@H](CCc3cc(F)c(C(F)(F)F)c(F)c3)C(=O)N2C1` [PP0815], the “NRAS/KRAS (ratio of KD value for NRAS to KD value for KRAS)” value in test [1] (setting [3]) is “B (a compound having 3 or more and less than 10 is denoted as B)”. The “HRAS/KRAS (ratio of KD value for HRAS to KD value for KRAS)” value in test [2] (setting [4]) was “B (a compound having 3 or more and less than 10 is denoted as B)”.
Turning to `CCC[C@H]1C(=O)N[C@@H]([C@@H](C)CC)C(=O)N(C)CC(=O)N(C)[C@H]2C/C=C\CCN(C2=O)[C@@H](Cc2ccc(C(F)(F)F)cc2)C(=O)N(C)CC(=O)N[C@@H](CCc2ccc(C3CC3)c(OC)c2)C(=O)N2C[C@H](OCC)C[C@H]2C(=O)NC2(CC(C)(C)C2)C(=O)N(C)[C@@H](C2CCCC2)C(=O)N(C)[C@H](C(=O)N(C)C)CC(=O)N1C` [PP2853], the “NRAS/KRAS (ratio of KD value with respect to GDP-bound NRAS wild-type protein to KD value with respect to KRAS)” value in test [1] is “A (a compound having 10 or more and less than 20 is denoted as A)”. The “HRAS/KRAS (ratio of KD value with respect to GDP-bound HRAS wild-type protein to KD value with respect to KRAS)” value in test [2] was “A (a compound having 10 or more and less than 20 is denoted as A)”.
Turning to `CCO[C@@H]1C[C@H]2C(=O)NC3(CCC3)C(=O)N(C)[C@@H](C3CCCC3)C(=O)N(C)[C@H](C(=O)N(C)CC)CC(=O)N(C)[C@@H](CC3CCCC3)C(=O)N[C@@H]([C@@H](C)CC)C(=O)N(C)CC(=O)N(C)[C@H]3C/C=C\CCN(C3=O)[C@@H](Cc3ccc(C(F)(F)F)cc3)C(=O)N(C)CC(=O)N[C@@H](CCc3ccc(C(F)(F)F)c(OC)c3)C(=O)N2C1` [PP1573], in test [1] (SPR, GDP-bound NRAS wild-type protein vs GDP-bound KRAS wild-type protein, KD ratio class), the “NRAS/KRAS (ratio of KD value for NRAS to KD value for KRAS)” value was “A (a compound having 10 or more and less than 20 is denoted as A)”. In addition, in test [2] (SPR, GDP-bound HRAS wild-type protein vs GDP-bound KRAS wild-type protein, KD ratio class), the “HRAS/KRAS (ratio of KD value for HRAS to KD value for KRAS)” value is “A (a compound having 10 or more and less than 20 is denoted as A)”.
With `CCC(CC)[C@H]1C(=O)N(C)[C@H](C(=O)N(C)C)CC(=O)N(C)[C@@H](COC)C(=O)N[C@@H]([C@@H](C)CC)C(=O)N(C)CC(=O)N(C)[C@H]2C/C=C\CCN(C2=O)[C@@H](Cc2ccc(C)cc2)C(=O)N(C)CC(=O)N[C@@H](CCc2ccc(C(F)(F)F)c(Cl)c2)C(=O)N2CCCCC[C@H]2C(=O)NC2(CC(C)(C)C2)C(=O)N1C` [PP2966], the “NRAS/KRAS (ratio of KD value with respect to GDP-bound NRAS wild-type protein to KD value with respect to KRAS)” value in test [1] was “A (a compound having 10 or more and less than 20 is denoted as A)”. Moreover, in test [2], the “HRAS/KRAS (ratio of KD value with respect to GDP-bound HRAS wild-type protein to KD value with respect to KRAS)” value is “A (a compound having 10 or more and less than 20 is denoted as A)”.
On to `CCO[C@@H]1C[C@H]2C(=O)NC3(CC(C)(C)C3)C(=O)N(C)[C@@H](C(CC)CC)C(=O)N(C)[C@H](C(=O)N(C)C)CC(=O)N(C)[C@H]3CC/C=C/c4ccc(cc4)C[C@@H](C(=O)N(C)CC(=O)N[C@@H](CCc4ccc(Cl)c(Cl)c4)C(=O)N2C1)N1CC/C=C\C[C@@H](C1=O)N(C)C(=O)CN(C)C(=O)[C@H]([C@@H](C)CC)NC3=O` [PP2589], for which, in test [1], the “NRAS/KRAS (ratio of KD value with respect to GDP-bound NRAS wild-type protein to KD value with respect to KRAS)” value is “AA (a compound having 20 or more is denoted as AA)”. For the same compound, the “HRAS/KRAS (ratio of KD value with respect to GDP-bound HRAS wild-type protein to KD value with respect to KRAS)” value in test [2] is “A (a compound having 10 or more and less than 20 is denoted as A)”.
Take `CCC[C@H]1C(=O)N[C@@H]([C@@H](C)CC)C(=O)N(C)CC(=O)N(C)[C@H]2C/C=C\CCN(C2=O)[C@@H](Cc2ccc(C(F)(F)F)cc2)C(=O)N(C)CC(=O)N[C@@H](CCc2ccc(CC)c(OC)c2)C(=O)N2C[C@H](OCC)C[C@H]2C(=O)NC2(CC(C)(C)C2)C(=O)N(C)[C@@H](C2CCCC2)C(=O)N(C)[C@H](C(=O)N(C)C)CC(=O)N1C` [PP2869]: the “NRAS/KRAS (ratio of KD value with respect to GDP-bound NRAS wild-type protein to KD value with respect to KRAS)” value in test [1] is “A (a compound having 10 or more and less than 20 is denoted as A)”. The “HRAS/KRAS (ratio of KD value with respect to GDP-bound HRAS wild-type protein to KD value with respect to KRAS)” value in test [2] was “A (a compound having 10 or more and less than 20 is denoted as A)”.
`CCO[C@@H]1C[C@H]2C(=O)NC3(CCC3)C(=O)N(C)[C@@H](C3CCCC3)C(=O)N(C)[C@H](C(=O)N(C)C)CC(=O)N(C)[C@@H](CCOC)C(=O)N[C@@H]([C@@H](C)CC)C(=O)N(C)CC(=O)N(C)[C@H]3CCCCCN(C3=O)[C@@H](Cc3ccc(C(F)(F)F)cc3)C(=O)N(C)CC(=O)N[C@@H](CCc3cc(F)c(C(F)(F)F)c(F)c3)C(=O)N2C1` [PP0675]: in test [1] (setting [3]), the “NRAS/KRAS (ratio of KD value with respect to NRAS to KD value with respect to KRAS)” value is “B (a compound having 3 or more and less than 10 is denoted as B)”. Further, in test [2] (setting [4]), the “HRAS/KRAS (ratio of KD value with respect to HRAS to KD value with respect to KRAS)” value was “B (a compound having 3 or more and less than 10 is denoted as B)”.
As for `CC[C@H](C)[C@@H]1NC(=O)[C@H](CC(C)C)N(C)C(=O)C[C@@H](C(=O)N2CCOCC2)N(C)C(=O)[C@H](C2CCCC2)N(C)C(=O)C2(CCC2)NC(=O)[C@@H]2[C@H](OC)CCN2C(=O)[C@H](CCc2cc(F)c(C(F)(F)F)c(F)c2)NC(=O)CN(C)C(=O)[C@H](Cc2ccc(C(F)(F)F)cc2)N2CCCC[C@@H](C2=O)N(C)C(=O)CN(C)C1=O` [PP1084], the “NRAS/KRAS (ratio of KD value for NRAS to KD value for KRAS)” value in test [1] (setting [3]) was “C (A compound having a KD ratio of 0.1 or more and less than 3 is denoted as C)”. Also, the “HRAS/KRAS (ratio of KD value for HRAS to KD value for KRAS)” value in test [2] (setting [4]) is “B (a compound having 3 or more and less than 10 is denoted as B)”.
